Source: patent US11771634B2, “Antimicrobial antifungal composition” (GODREJ INDUSTRIES LIMITED, priority 2021, dated 2023)

Columns and labels:
M. furfur [1] = experiment: Anti-dandruff efficacy, zone of inhibition; assay type: cell-based, Malassezia furfur
From the text: Comparison of Anti-Dandruff Efficacy Against M. furfur

M. furfur [2] = experiment: Time kill method (ASTM E 2315-16); assay type: cell-based, Malassezia furfur; conditions: 1% AI
From the text: Time Kill Method (at 1% AI) Against Test Organism M. furfur.

[3] = tested on: gm +ve and gm −ye micro-organism; experiment: Antibacterial efficacy by MIC, overall conclusion; assay type: cell-based
Method: (§1) The minimum inhibitory concentration (MIC) of an antibacterial is the maximum dilution of the product that will still inhibit the growth of a test microorganism. In Tube/Plate dilution method, serial dilutions of the products are made in bacterial growth media, incubated, and scored for growth. It was determined by Tube/Plate method.

Staph. aureus = experiment: MIC by Tube/Plate dilution method; assay type: cell-based
Method: as §1

Ps. aeruginosa = experiment: MIC by Tube/Plate dilution method; assay type: cell-based
Method: as §1

Candida albicans = experiment: MIC by Tube/Plate dilution method; assay type: cell-based
Method: as §1

Escherichia coli = experiment: MIC by Tube/Plate dilution method; assay type: cell-based
Method: as §1

From the text for zein (corn protein): The Zein test enables to determine the irritation potential (harshness) of a surfactant-based product (shower gel, shampoo, soap, washing-up liquid, etc.). It consists in making soluble a yellow corn protein that is similar to the keratin present in the skin and hair. The irritation potential of the product is directly proportional to the quantity of dissolved proteins. The Zein Test provides a rapid and convenient screen for irritation potential, especially for compositions that contain surface active agents.
This method involves measuring the solubility of zein (corn protein) in cleansing base solutions as follows.
To 40 mL of samples, 2 f 0.05 g of zein from corn was added. The solutions with zein were shaken in a shaker with water bath (60 min. at 35° C.). The solutions were filtered on Whatman No. 1 filters and then centrifuged at 5000 rpm for 10 min. The nitrogen content in the solutions was determined by Kjeldahl method. One millilitre of the filtrate was mineralized in sulfuric acid (98%) containing copper sulphate pentahydrate and potassium sulphate. After mineralization, the solution was transferred (with 50 mL of Milli-Q water) into the flask of the Wagner-Parnas apparatus. In the next step, 20 mL of sodium hydroxide (25 wt. %) was added. The released ammonia was distilled with steam. […]
The zein number (ZN) was calculated from the equation: ZN=(10−V1)·100·0.7 [mg N/100 mL] […]

Row | Molecule | Comments (zone of inhibition) (M. furfur [1]; Active Conc. 1%) | Zone of Inhibition (ZOI) (M. furfur [1]; Active Conc. 1%) [mm] | Comments (zone of inhibition) (M. furfur [1]; Active Conc. 2%) | Zone of Inhibition (ZOI) (M. furfur [1]; Active Conc. 2%) [mm] | Antimicrobial Activity Log Reduction (M. furfur [2]; exposure time 1 minute) [Log] | Antimicrobial Activity Percentage reduction (M. furfur [2]; exposure time 1 minute) [%] | Count of Test Organism After Exposure CFU/ml (M. furfur [2]; exposure time 1 minute) [CFU/ml] | Count of Test Organism After Exposure Log (M. furfur [2]; exposure time 1 minute) [Log] | Antimicrobial Activity Log Reduction (M. furfur [2]; exposure time 5 minutes) [Log] | Antimicrobial Activity Percentage reduction (M. furfur [2]; exposure time 5 minutes) [%] | Count of Test Organism After Exposure CFU/ml (M. furfur [2]; exposure time 5 minutes) [CFU/ml] | Count of Test Organism After Exposure Log (M. furfur [2]; exposure time 5 minutes) [Log] | Antibacterial efficacy [3] | MIC (Staph. aureus) [ppm] | MIC (Ps. aeruginosa) [ppm] | MIC (Candida albicans) [ppm] | MIC (Escherichia coli) [ppm] | Zein Number (ZN) (zein (corn protein)) [mg N/100 mL]
1 | zinc pyrithione [ZnPTO, reference compound] | Effective | 34 | Effective | 41 | >3.95 | >99.98 | <10 | <1 | >3.95 | >99.98 | <10 | <1 |  |  |  |  |  | 
2 | C=CCCCCCCCCC(=O)NCCC[N+](C)(C)CC(O)COP(=O)([O-])OCC(O)C[N+](C)(C)CCCNC(=O)CCCCCCCCC=C.[Cl-] (stereo not drawn) [UDAP PB, Undecylenamidopropyl PG-Dimonium Chloride Phosphate] | Effective | 28 | Effective | 33 | >4.19 | >99.99 | <10 | <1 | >4.19 | >99.99 | <10 | <1 | effective antibacterial | <300 | <700 | <200 | <300 | 36
